Experimental data reported in patent US6709873B1, “Method for production of antibodies to specific sites of rapamycin” (Isodiagnostika Inc., priority 1997, dated 2004).
In brackets after ≈: the same amount, converted by molar mass.

What was measured:
[1] = Relative concentrations of Rapa metabolites in pooled whole blood patient samples (LC/MS); assay type: in vivo; settings: Rapa = 1
Source text: No individual metabolite is found at a concentration greater than 20% of the Rapa parent level.

[2] = tested on: lymphocytes; experiment: In vitro mixed lymphocyte reaction (MLR) assay, two-way lymphocyte proliferation; assay type: cell-based; settings: Lymphocyte, 3H-thymidine incorporation
Source text: The MLR assay is useful for identifying rapamycin metabolites with biological (immunosupressive) activity and to quantify this activity relative to the immunosuppressive activity of the parent rapamycin molecule.
An example of a two-way lymphocyte proliferation assay procedure useful for this purpose is as follows:
1. Collect blood from two individuals (20 mls each) and isolate lymphocytes using Ficoll-Paque™ (polysucrose and sodium diatrizoate) (Pharmacia Biotech).
2. Count lymphocytes at 1:10 dilution in 2% acetic acid (v/v).
3. Prepare 10 mls of each lymphocyte populations (A+B) at 1×10^6 cells/ml in DMEM/20% FCS (v/v).
4. Set up a 96 well sterile tissue culture plate, flat bottom (Sarstedt, cat # 83.1835). To each well add:
5. Aliquot 100 μl per well lymphocyte population A
6. Aliquot 100 μl per well lymphocyte population B
7. Aliquot 20 μl per well of drug (rapamycin and rapamycin metabolites M1-5) serially diluted 0 to 1000 μg/L in triplicate in DMEM with no supplements.
8. […]
10. […] Wash cells 3× with 1.0-ml sterile distilled water.
Note: All procedures are done using sterile techniques in a biological flow hood.
11. Place filters in Scintilation vials and add 1.5 mls of ScintiSafe Plus™ 50% scintillation fluid (Fisher, cat #SX-25-5).
12. Measure the amount of radioactivity incorporated in the lymphocytes using a beta counter (Micromedic System Inc., TAURUS™ Automatic Liquid Scintillation Counter) for 1.0 minute.
13. Calculate averages and standard deviations for each drug and express results as: [formula]

[3] = [14C]-rapamycin, healthy male volunteers; cited from earlier work

CO[C@H]1C[C@@H]2CC[C@@H](C)[C@@](O)(O2)C(=O)C(=O)N2CCCC[C@H]2C(=O)O[C@H]([C@H](C)C[C@@H]2CC[C@@H](O)[C@H](OC)C2)CC(=O)[C@H](C)/C=C(\C)[C@@H](O)[C@@H](OC)C(=O)[C@H](C)C[C@H](C)/C=C/C=C/C=C/1C [Rapa, Rapamycin]
Relative Concentration in whole blood [1]: 1 | IC50 [2]: 0.48 ng/mL (≈ 0.525 nM) | share of the total radioactivity in blood [3]: approximately 35%
